Reference: paper doi:10.1101/2024.08.19.608619, “Discovery of potent SARS-CoV-2 nsp3 macrodomain inhibitors uncovers lack of translation to cellular antiviral response” (bioRxiv, 2024)
pEC50: −log10 of the molar value. Where “and” joins values, the source holds several entries; their conditions need not be identical. Equal values may be shown once. Read-outs that look alike come from different tables or passages of the source.

What was measured:
[1] = molecular target: CDK6/cyclinD3(h) (Homo sapiens, UniProt Q00534); experiment: biochemical; set-up: In vitro kinase panel profiling, per cent remaining kinase activity at 10 uM; conditions: atp_concentration=200, read-out: % of control remaining
Description: (§1) We derisk potential for off-target activity by profiling the compound in a CEREP panel, a standard secondary pharmacology assessment, as well as a kinase panel to derisk a potential hinge-binding motif in our leads, and a PARP panel to derisk activity against human […]. Reassuringly, the compounds are selective, with the only off-targets being moderate human CHRM2 and KOR receptors activity associated with ASAP-0011198.

[2] = molecular target: T1, MAPKAP-K2(h) (Homo sapiens, UniProt P49137); experiment: biochemical; set-up: In vitro kinase panel profiling, per cent remaining kinase activity at 10 uM; conditions: atp_concentration=90, read-out: % of control remaining
T1 construct: gene MAPKAPK2
Description: as §1

[3] = molecular target: T2, PKCθ(h) (Homo sapiens, UniProt Q04759); experiment: biochemical; set-up: In vitro kinase panel profiling, per cent remaining kinase activity at 10 uM; conditions: atp_concentration=15, read-out: % of control remaining
T2 construct: gene PRKCQ
Description: as §1

[4] = molecular target: T3, PKCα(h) (Homo sapiens, UniProt P17252); experiment: biochemical; set-up: In vitro kinase panel profiling, per cent remaining kinase activity at 10 uM; conditions: atp_concentration=45, read-out: % of control remaining
T3 construct: gene PRKCA
Description: as §1

[5] = molecular target: T4, ASK1(h) (Homo sapiens, UniProt Q99683); experiment: biochemical; set-up: In vitro kinase panel profiling, per cent remaining kinase activity at 10 uM; conditions: atp_concentration=200, read-out: % of control remaining
T4 construct: gene MAP3K5
T4 sequence (Q99683 1-1374): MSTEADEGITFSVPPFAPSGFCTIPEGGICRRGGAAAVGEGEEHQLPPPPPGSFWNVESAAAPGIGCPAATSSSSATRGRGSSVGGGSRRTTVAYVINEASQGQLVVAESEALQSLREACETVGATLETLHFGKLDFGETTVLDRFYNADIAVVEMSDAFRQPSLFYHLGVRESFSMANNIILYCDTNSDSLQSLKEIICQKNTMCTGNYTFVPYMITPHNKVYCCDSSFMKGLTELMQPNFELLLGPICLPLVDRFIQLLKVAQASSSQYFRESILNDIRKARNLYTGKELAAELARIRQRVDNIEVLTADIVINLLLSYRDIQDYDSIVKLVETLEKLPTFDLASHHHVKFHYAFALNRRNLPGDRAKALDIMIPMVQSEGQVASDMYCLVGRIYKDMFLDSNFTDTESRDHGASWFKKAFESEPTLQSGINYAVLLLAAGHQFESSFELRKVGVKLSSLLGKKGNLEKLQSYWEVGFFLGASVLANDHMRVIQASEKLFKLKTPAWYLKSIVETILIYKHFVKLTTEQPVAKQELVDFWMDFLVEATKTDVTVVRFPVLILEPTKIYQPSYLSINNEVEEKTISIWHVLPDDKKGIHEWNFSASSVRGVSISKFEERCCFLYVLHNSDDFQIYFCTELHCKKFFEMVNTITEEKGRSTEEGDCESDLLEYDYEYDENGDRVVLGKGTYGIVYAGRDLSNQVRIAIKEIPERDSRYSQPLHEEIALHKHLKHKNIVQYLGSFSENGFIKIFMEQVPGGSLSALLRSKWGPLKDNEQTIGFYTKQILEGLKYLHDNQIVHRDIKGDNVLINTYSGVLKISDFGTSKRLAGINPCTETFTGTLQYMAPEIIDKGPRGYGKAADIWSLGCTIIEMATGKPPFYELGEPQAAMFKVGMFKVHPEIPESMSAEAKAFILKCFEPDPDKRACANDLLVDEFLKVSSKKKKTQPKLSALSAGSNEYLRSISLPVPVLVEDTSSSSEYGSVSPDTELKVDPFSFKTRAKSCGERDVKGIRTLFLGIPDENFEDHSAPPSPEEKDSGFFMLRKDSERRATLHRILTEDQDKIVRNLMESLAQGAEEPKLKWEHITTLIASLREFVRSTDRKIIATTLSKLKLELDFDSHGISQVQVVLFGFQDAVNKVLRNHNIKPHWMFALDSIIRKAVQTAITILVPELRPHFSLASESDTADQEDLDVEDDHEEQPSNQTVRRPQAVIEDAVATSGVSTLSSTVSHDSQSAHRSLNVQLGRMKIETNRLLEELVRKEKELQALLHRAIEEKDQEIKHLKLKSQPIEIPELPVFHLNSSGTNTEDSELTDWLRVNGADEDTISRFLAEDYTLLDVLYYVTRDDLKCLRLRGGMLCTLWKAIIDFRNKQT
Description: as §1

[6] = molecular target: T5, COX1(h) (Homo sapiens, UniProt P23219); experiment: In vitro CEREP profiling, COX1(h); assay type: biochemical; conditions: test compound concentration 10 uM; Enzyme and Cell-based assays
T5 construct: purchased Eurofins Cerep (SafetyScreen44), recognised from the panel format
Description: (§2) Supplement media-1.zip/Safety_Panel_Profile.csv, table | column: perc_inhibition

[7] = tested on: MERS-CoV; experiment: microbe, parasite or virus in culture; assay type: cell-based; conditions: Vero E6/TMPRSS2 MERS-CoV antiviral effect with P-gp inhibitor; for perc_max_measured: maximum measured response of dose series; for EC90: read-out: ec90; for perc_min_measured: minimum measured response of dose series; for pEC50: read-out: ec50
[8] = molecular target: T6, 5-HT1B (h) (Homo sapiens, UniProt P28222); experiment: In vitro CEREP profiling, 5-HT1B (h) (antagonist radioligand); assay type: binding; conditions: test compound concentration 10 uM
T6 construct: purchased Eurofins Cerep (SafetyScreen44), recognised from the panel format
Description: as §2

[9] = molecular target: T7, PDE4D2 (h) (Homo sapiens, UniProt Q08499); experiment: In vitro CEREP profiling, PDE4D2 (h); assay type: biochemical; conditions: test compound concentration 10 uM; Enzyme and Cell-based assays
T7 construct: purchased Eurofins Cerep (SafetyScreen44), recognised from the panel format
Description: as §2

[10] = molecular target: T8, 5-HT2B (h) (Homo sapiens, UniProt P41595); experiment: In vitro CEREP profiling, 5-HT2B (h) (agonist radioligand); assay type: binding; conditions: test compound concentration 10 uM
T8 construct: purchased Eurofins Cerep (SafetyScreen44), recognised from the panel format
Description: as §2

T5 sequence (P23219 24-599): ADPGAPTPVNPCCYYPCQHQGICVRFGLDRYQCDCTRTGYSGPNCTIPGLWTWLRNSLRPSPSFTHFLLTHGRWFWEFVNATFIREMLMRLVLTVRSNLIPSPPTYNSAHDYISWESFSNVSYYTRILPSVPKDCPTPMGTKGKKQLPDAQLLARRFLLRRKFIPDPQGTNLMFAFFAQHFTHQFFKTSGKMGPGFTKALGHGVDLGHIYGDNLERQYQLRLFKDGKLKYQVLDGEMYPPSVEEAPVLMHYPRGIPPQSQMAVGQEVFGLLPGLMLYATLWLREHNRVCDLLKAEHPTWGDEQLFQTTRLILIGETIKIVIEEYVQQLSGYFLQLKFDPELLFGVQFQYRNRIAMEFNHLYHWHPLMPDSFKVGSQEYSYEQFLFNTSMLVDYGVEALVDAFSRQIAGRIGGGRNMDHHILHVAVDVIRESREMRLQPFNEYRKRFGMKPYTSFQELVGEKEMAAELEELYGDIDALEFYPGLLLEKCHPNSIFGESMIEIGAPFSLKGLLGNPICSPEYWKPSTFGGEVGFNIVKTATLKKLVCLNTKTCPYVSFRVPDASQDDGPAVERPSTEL
T6 sequence (P28222 whole entry): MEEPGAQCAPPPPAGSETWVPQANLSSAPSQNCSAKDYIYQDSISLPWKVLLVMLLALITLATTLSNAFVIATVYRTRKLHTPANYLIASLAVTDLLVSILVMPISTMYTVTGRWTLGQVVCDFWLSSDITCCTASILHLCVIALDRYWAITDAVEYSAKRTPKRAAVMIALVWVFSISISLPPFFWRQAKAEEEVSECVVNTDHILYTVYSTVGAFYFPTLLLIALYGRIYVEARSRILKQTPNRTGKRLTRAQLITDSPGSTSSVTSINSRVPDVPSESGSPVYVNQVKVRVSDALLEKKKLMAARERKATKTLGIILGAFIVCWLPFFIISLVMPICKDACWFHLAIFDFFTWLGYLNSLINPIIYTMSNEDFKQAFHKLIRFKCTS
T1 sequence (P49137 whole entry): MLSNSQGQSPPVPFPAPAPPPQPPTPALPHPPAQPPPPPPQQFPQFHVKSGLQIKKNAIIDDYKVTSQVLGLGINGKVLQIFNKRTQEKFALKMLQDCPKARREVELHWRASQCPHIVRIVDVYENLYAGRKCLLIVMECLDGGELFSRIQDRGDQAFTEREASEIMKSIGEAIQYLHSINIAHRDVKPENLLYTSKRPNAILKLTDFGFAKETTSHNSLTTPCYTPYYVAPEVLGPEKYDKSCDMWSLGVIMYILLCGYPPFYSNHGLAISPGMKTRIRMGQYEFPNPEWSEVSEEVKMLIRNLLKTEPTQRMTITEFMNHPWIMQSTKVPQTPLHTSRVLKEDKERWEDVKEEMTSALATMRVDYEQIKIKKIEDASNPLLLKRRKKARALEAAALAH
T2 sequence (Q04759 whole entry): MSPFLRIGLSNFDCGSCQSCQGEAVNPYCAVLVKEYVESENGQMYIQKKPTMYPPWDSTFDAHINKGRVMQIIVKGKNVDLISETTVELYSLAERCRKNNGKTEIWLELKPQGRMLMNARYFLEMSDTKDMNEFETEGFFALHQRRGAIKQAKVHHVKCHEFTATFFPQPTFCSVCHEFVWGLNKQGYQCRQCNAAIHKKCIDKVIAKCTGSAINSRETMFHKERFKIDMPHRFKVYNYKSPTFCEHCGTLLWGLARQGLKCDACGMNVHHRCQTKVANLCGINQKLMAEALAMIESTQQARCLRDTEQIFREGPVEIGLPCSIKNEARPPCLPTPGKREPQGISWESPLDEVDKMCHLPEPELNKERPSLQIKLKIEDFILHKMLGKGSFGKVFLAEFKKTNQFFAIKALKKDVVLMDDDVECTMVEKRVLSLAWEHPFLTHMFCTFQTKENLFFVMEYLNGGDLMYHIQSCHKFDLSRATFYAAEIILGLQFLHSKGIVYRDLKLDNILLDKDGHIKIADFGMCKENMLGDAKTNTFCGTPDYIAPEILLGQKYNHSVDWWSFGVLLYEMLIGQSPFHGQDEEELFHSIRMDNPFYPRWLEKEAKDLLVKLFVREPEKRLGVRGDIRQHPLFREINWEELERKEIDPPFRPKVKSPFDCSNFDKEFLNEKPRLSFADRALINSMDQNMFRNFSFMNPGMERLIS
T7 sequence (Q08499 303-809): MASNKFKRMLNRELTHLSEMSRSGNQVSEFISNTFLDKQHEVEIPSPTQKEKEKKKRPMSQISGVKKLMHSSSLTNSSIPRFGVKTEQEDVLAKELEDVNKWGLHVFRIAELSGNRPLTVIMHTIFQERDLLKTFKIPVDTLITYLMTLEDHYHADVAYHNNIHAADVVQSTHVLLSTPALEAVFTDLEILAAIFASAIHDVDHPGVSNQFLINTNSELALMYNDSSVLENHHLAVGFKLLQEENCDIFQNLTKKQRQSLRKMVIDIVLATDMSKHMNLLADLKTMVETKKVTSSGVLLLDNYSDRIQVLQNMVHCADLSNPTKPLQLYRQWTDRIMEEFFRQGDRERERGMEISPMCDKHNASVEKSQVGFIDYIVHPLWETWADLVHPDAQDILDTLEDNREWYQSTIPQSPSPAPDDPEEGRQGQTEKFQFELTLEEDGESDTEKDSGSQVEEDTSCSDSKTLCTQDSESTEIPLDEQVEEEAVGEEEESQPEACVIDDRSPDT
CDK6/cyclinD3(h), sequence (Q00534 whole entry): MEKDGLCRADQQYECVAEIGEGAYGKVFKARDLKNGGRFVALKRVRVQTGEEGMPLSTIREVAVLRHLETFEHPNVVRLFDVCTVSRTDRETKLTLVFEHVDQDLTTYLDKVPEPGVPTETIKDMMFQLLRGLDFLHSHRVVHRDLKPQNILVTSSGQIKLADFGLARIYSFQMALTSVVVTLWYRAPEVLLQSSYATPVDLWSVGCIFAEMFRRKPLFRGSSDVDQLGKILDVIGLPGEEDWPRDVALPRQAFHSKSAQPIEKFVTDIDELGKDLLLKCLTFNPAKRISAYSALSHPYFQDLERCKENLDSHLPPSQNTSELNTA
CDK6/cyclinD3(h), sequence (P30281 whole entry partner): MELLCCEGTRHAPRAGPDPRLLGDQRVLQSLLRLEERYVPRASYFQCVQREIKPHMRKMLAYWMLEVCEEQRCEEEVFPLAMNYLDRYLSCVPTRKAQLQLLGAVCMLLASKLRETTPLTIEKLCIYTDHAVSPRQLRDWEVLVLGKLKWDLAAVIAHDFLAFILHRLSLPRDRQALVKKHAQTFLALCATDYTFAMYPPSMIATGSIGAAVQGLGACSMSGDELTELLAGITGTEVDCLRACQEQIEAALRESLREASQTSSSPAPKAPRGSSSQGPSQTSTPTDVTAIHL
T8 sequence (P41595 whole entry): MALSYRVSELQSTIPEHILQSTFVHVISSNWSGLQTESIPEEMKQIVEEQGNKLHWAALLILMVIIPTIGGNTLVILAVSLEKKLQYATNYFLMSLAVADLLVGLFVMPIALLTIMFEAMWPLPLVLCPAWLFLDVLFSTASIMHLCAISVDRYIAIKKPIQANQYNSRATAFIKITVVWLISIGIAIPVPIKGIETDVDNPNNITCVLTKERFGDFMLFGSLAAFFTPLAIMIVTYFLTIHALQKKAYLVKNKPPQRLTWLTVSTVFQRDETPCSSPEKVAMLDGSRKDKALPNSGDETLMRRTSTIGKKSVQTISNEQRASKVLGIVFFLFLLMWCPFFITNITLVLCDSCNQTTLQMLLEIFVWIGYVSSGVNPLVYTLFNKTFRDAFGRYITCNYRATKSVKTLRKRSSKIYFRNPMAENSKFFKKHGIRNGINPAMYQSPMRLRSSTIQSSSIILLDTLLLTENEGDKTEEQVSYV

Row | Structure (SMILES) | perc_inhibition: % inhibition of control enzyme activity, COX1(h) [6] | perc_max_measured [7] | EC90 [7] | perc_inhibition (% inhibition of the binding of a ligand specific for each target) [8] | perc_inhibition: % inhibition of control enzyme activity, PDE4D2 (h) [9] | perc_inhibition (% inhibition of the binding of a ligand specific for each target) [10] | perc_min_measured [7] | pEC50 [7] | also measured
1 | CC(C)C(Nc1ncnc2[nH]ccc12)c1ccc2c(c1)S(=O)(=O)CCC2 (stereo not shown) [ASAP-0008327] |  |  |  |  |  |  |  |  | remaining activity at 10 µM ([1]; batch_name=ASAP-0008327-001): 99%; remaining activity at 10 µM ([2]; batch_name=ASAP-0008327-001): 105%; remaining activity at 10 µM ([3]; batch_name=ASAP-0008327-001): 101%; remaining activity at 10 µM ([4]; batch_name=ASAP-0008327-001): 104%; remaining activity at 10 µM ([5]; batch_name=ASAP-0008327-001): 108%
2 | COc1ccc([C@@H](Cc2nnn[nH]2)NC(=O)c2ncnc3[nH]ccc23)cc1 [ASAP-0008340] |  |  |  |  |  |  |  |  | remaining activity at 10 µM ([1]; batch_name=ASAP-0008340-001): 100%; remaining activity at 10 µM ([2]; batch_name=ASAP-0008340-001): 92%; remaining activity at 10 µM ([3]; batch_name=ASAP-0008340-001): 90%; remaining activity at 10 µM ([4]; batch_name=ASAP-0008340-001): 95%; remaining activity at 10 µM ([5]; batch_name=ASAP-0008340-001): 101%
3 | CC(C)[C@@H](Nc1ncnc2[nH]c(-c3cnn(C)c3C#N)cc12)c1ccc2c(n1)OCCO2 [ASAP-0008418] |  |  |  |  |  |  |  |  | remaining activity at 10 µM ([1]; batch_name=ASAP-0008418-001): 105%; remaining activity at 10 µM ([3]; batch_name=ASAP-0008418-001): 93%; remaining activity at 10 µM ([4]; batch_name=ASAP-0008418-001): 90%
4 | CC(C)[C@H](Nc1ncnc2[nH]ccc12)c1ccc2c(c1)S(=O)(=O)CCC2 [ASAP-0008674] | 85% | 131.878% and 83.309% and 125.339% | > 5 µM | 0% | 36% | 54% |  |  | remaining activity at 10 µM ([1]; batch_name=ASAP-0008674-002): 105%; remaining activity at 10 µM ([2]; batch_name=ASAP-0008674-002): 106%; remaining activity at 10 µM ([3]; batch_name=ASAP-0008674-002): 88%; remaining activity at 10 µM ([4]; batch_name=ASAP-0008674-002): 98%; remaining activity at 10 µM ([5]; batch_name=ASAP-0008674-002): 105%
5 | CC(C)[C@H](Nc1ncnc2[nH]c(-c3cnn(C)c3C#N)cc12)c1ccc2c(n1)OCCO2 [ASAP-0010715] | -39% | 122.135% and 106.633% | > 5 µM | -11% | 70% | 18% | 93.468% and 72.24% | < 5.30 | remaining activity at 10 µM ([1]; batch_name=ASAP-0010715-002): 102%; remaining activity at 10 µM ([2]; batch_name=ASAP-0010715-002): 115%; remaining activity at 10 µM ([5]; batch_name=ASAP-0010715-002): 106%
6 | CC(C)[C@@H](Nc1ncnc2[nH]c(-c3cnn(C)c3C#N)cc12)c1ccc2c(n1)OCCO2 [ASAP-0010716] | -34% | 144.33% and 125.176% | > 5 µM | 4% | 44% | 40% | 55.976% and 101.272% | < 5.30 | remaining activity at 10 µM ([2]; batch_name=ASAP-0010716-002): 114%; remaining activity at 10 µM ([3]; batch_name=ASAP-0010716-002): 111%; remaining activity at 10 µM ([4]; batch_name=ASAP-0010716-002): 99%; remaining activity at 10 µM ([5]; batch_name=ASAP-0010716-002): 108%
7 | CNCc1cc(-c2cc3c(N[C@@H](c4ccc5c(c4)S(=O)(=O)CCC5)C(C)C)ncnc3[nH]2)co1 [ASAP-0011176] | -6% | 108.298% and 134.469% | > 5 µM | 45% | 43% | -11% | 91.617% and 86.125% | < 5.30 | remaining activity at 10 µM ([1]; batch_name=ASAP-0011176-002): 92%; remaining activity at 10 µM ([2]; batch_name=ASAP-0011176-002): 106%; remaining activity at 10 µM ([3]; batch_name=ASAP-0011176-002): 106%; remaining activity at 10 µM ([4]; batch_name=ASAP-0011176-002): 99%
8 | Cn1ncc(-c2cc3c(N[C@@H](c4ccc5c(n4)OCCO5)C(C)(C)C)ncnc3[nH]2)c1C#N [ASAP-0011221] | -14% |  |  | 18% | 20% | -5% |  |  | remaining activity at 10 µM ([2]; batch_name=ASAP-0011221-002): 110%; remaining activity at 10 µM ([3]; batch_name=ASAP-0011221-002): 96%; remaining activity at 10 µM ([4]; batch_name=ASAP-0011221-002): 87%; remaining activity at 10 µM ([5]; batch_name=ASAP-0011221-002): 108%
